In patent US9669029B2, “Heteroaromatic phenylimidazole derivatives as PDE10A enzyme inhibitors” (H. Lundbeck A/S, priority 2009, dated 2017):

What was measured:
PDE10A = PDE10A (Homo sapiens (Human), UniProt Q9Y233); assay: PDE10A inhibition assay; type: biochemical
Procedure: Active PDE10A enzyme is prepared in a number of ways for use in PDE assays (Loughney, K. et al. Gene 1999, 234, 109-117; Fujishige, K. et al. Eur J Biochem. 1999, 266, 1118-1127 and Soderling, S. et al. Proc. Natl. Acad. Sci. 1999, 96, 7071-7076). PDE10A can be expressed as full-length proteins or as truncated proteins, as long as they express the catalytic domain. PDE10A can be prepared in different cell types, for example insect cells or E. coli. […]
A PDE10A assay may for example, be performed as follows: The assay is performed in 60 uL samples containing a fixed amount of the relevant PDE enzyme (sufficient to convert 20-25% of the cyclic nucleotide substrate), a buffer (50 mM HEPES7.6; 10 mM MgCl2; 0.02% Tween20), 0.1 mg/ml BSA, 225 pCi of ^3H-labelled cyclic nucleotide substrate, tritium labeled cAMP to a final concentration of 5 nM and varying amounts of inhibitors. […] The beads are allowed to settle for one hr in the dark before the plates are counted in a Wallac 1450 Microbeta counter. The measured signal can be converted to activity relative to an uninhibited control (100%) and IC50 values can be calculated using the Xlfit extension to EXCEL.

rats = conditions: cited from earlier work

Chain of PDE10A (Q9Y233 716-1055): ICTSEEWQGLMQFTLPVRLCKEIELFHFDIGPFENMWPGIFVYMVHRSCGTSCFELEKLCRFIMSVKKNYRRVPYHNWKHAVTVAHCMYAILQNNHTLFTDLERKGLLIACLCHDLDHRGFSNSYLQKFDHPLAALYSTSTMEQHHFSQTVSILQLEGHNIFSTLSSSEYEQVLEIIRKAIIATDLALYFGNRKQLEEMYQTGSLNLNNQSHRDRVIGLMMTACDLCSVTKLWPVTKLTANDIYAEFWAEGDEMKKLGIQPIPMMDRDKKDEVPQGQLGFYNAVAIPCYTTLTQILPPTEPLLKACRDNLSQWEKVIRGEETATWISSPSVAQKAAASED

## COc1cccn2nc(/C=C/c3nc(-c4ccc(C)o4)cn3C)nc12 [8-Methoxy-2-{(E)-2-[1-methyl-4-(5-methyl-furan-2-yl)-1H-imidazol-2-yl]-vinyl}-[1,2,4]triazolo[1,5-a]pyridine]
PDE10A
  IC50: 0.14 µM

## Cc1cccn2nc(CCc3nc(-c4cccnc4)cn3C)nc12 [8-Methyl-2-[2-(1-methyl-4-pyridin-3-yl-1H-imidazol-2-yl)-ethyl]-[1,2,4]triazolo[1,5-a]pyridine]
PDE10A
  IC50: 0.075 µM

## COc1ccc(Cc2nccc3cc(OC)c(OC)cc23)cc1OC [Papaverine, papaverine]
rats; papaverine alone
  catalepsy on its own: did not cause catalepsy
rats; with haloperidol
  effect on the cataleptic effect of the D2 receptor antagonist haloperidol: potentiated
